# Test results: US12214076B2, “Drug delivery vehicles for atherosclerosis nanomedicine” (Northwestern University, priority 2019, dated 2025)
# Peptide text beside a SMILES is read from it.
# Columns and labels:
# [1] = system: J774.2 murine macrophages; format: cell-based, mouse
# Description: To measure cell metabolic activity, thiazolyl blue tetrazolium bromide (MTT, Sigma-Aldrich) was added to cells at 0.4 mg/mL in complete medium for 4 hours at 37° C. The plates were then aspirated and 100 µL of DMSO added for 10-15 minutes at room temperature on a plate shaker at low speed setting. The plates were run on an Epoch plate reader using absorbance at 560 nm corrected for background at 670 nm. Flow cytometry analysis for iNOS expression followed the methods described above.
# J774.2 mouse macrophages = test: In Vitro Cholesterol Efflux Assay (Example 1); format: cell-based; settings: two- and threefold higher concentrations of LXR
# [2] = Solubility of LXR agonist without PA; format: physicochemical; settings: deionized water or PBS
# LDLR KO mice = test: Atherosclerosis treatment study; format: in vivo, mouse; settings: both sexes
# Description: Mouse model of atherosclerosis: To study atherosclerosis, the LDLR KO mouse was used. LDLR KO mice are fed a high fat “western” diet (Teklad TD.88137) starting at 4 weeks of age. This diet consists of 20% fat, 0.2% cholesterol, and 34% high sucrose. LDLR KO mice fed this diet typically develop severe hypercholesterolemia (>800 mg/dL) and hypertriglyceridemia (>300 mg/dL) after only 2 weeks. By 12 weeks on the high fat diet, atherosclerotic lesions are detected in the aortic root and aortic arch on cryosections stained with Oil Red O (Sigma). Atherosclerosis was quantified in the aortic root as a percentage of the aortic root by taking the atherosclerotic area divided by the total aortic root area. Measurements were made with ImageJ software. All protocols for the animal model and procedures in this manuscript were approved by Northwestern University's Institutional Animal Care and Use Committee.
# (§1) Blood samples were collected at the end of the treatment study for toxicology analysis. Mice were euthanized three days after their 16th treatment.
# (§2) Tissue processing and imaging: Mice were sacrificed and euthanized under inhaled isoflurane anesthesia by diaphragm disruption and exsanguination. Phlebotomy was performed through direct right ventricular cardiac puncture using a 1 mL syringe and 25 G needle. Perfusion was performed through left ventricular cardiac puncture with 10 mL PBS and 10 mL 10% sucrose solution. The lungs, liver, spleen, kidney, aortic root, aortic arch, and descending aorta were harvested and stored in 10% sucrose for 20 minutes. Organs and vessels were then flash-frozen in Optimal Cutting Temperature embedding medium 4583 (Tissue-Tek®) with liquid nitrogen. Frozen specimens were stored at −80° C. and cryosectioned at […]. Confocal microscopy was performed on a Nikon AIR microscope. Two sets of images were acquired with a 10× Plan Fluor NA 0.3 objective. PAs were identified through quantification of the Alexa Fluor® 546 conjugated dye with 561 nm excitation and a 600/50 nm emission filter.
# Images were acquired with spectral detection and spectrally unmixed to accurately separate green autofluorescence from the red Alexa Fluor® 546 signal. Brightfield and fluorescent microscopy were performed using a Zeiss Axio Imager.A2 microscope with AxioVision software (release 4.8.2, 06-2010). All confocal and fluorescent sections were mounted with ProGold Diamond mounting media (Sigma). Slides were stained with Oil Red O to image and quantify atherosclerosis under brightfield microscopy. The elastic laminae were identified using the green fluorescent protein (GFP) filter with an exposure time of 3500 ms under 5× magnification. Nanofibers were identified in the aortic root by presence of Alexa Fluor® 546 on the Cy3 filter under 5-10× magnification, and in the internal organs under 20× magnification. Fluorescent pixel quantification in the aortic root and within organs was performed with ImageJ software.
# (§3) Statistics: The effect of treatments and sex on atherosclerosis progression in mice was analyzed using one- or two-factor analysis of variance (ANOVA) followed by a post-hoc student's t-test. The toxicological effects of treatments were also analyzed using two-factor ANOVA and a post-hoc student's t-test. Toxicological effects of treatments on liver proteins AST, ALT, and ALP were further analyzed using ordinal logistic regression models of likelihood ratio tests, followed by a post-hoc Wald test
# [3] = Dialysis LXR agonist release study; format: physicochemical; settings: non-encapsulated LXR agonist, PBS, within the first hour
# Description: LXR-40% ApoA1 PA (1 mM with respect to PA) was dissolved in PBS. […] To each dialysis cup 0.1 mL of sample was added with one cup used for each time-point to be measured. All samples were dialyzed against 4 mL of PBS at 37° C. The total contents of one dialysis cup were isolated and kept at 4° C. until measurement at each time point. […] For LC-MS, a 5 to 95% acetonitrile (0.1% formic acid) gradient was run over 30 min with mobile phase containing 0.1% NH40H. A total ion chromatogram was obtained in MS mode and integrated using Mass Hunter Agilent software. The peak area corresponding to [M-H]− for GW3965 was recorded for each sample in negative ion mode and normalized according to the volume of sample present. Percent encapsulation was determined as follows:
# [formula] where NPA is the normalized peak area corresponding to LXR agonist (normalized for solution volume).
# [4] = Treatment study serum chemistry (toxicology analysis); format: in vivo, mouse; settings: for Alanine Aminotransferase (ALT) / Alkaline phosphatase / Aspartate Aminotransferase (AST) / Bicarbonate and CO2 / Bilirubin - Conjugated / Bilirubin - Unconjugated / Blood Urea Nitrogen / Cholesterol / Creatine / Creatine Kinase / Globulin / Glucose / Potassium / Sodium / Total Bilirubin / Total Protein: group median, end of 8-week treatment
# Description: as §1, §2, §3
# human recombinant MMP2 = target: T1, human recombinant MMP2 (Homo sapiens, UniProt P08253); test: MMP-Ac2-26 PA cleavage assay; format: biochemical; settings: 40 nM MMP2, 24 hours, 37° C.
# T1 construct: purchased R&D systems
# T1 sequence (P08253 110-660): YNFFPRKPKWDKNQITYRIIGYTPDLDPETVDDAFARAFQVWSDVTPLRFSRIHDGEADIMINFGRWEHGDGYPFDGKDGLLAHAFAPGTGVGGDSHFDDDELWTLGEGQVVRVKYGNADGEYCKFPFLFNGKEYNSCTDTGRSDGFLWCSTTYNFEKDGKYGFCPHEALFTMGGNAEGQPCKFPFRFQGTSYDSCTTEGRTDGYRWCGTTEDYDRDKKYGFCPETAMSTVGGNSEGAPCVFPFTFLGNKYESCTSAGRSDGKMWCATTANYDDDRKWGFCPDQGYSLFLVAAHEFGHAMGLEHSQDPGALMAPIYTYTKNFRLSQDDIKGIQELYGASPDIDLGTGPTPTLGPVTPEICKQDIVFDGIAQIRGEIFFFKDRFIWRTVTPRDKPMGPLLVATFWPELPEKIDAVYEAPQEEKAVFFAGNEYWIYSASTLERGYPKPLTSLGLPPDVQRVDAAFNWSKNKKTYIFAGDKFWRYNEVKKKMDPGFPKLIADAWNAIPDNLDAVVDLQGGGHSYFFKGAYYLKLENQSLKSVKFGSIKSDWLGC
# Description: ROS-Ac2-26 and MMP-Ac2-26 PA cleavage assays: To examine ROS-mediated cleavage, 3-morpholinosydnonimine hydrochloride (SIN-1, Sigma-Aldrich or Abcam) was used. ROS-Ac2-26 PAs were reconstituted to 0.5 mM in phosphate buffer and treated with 100 μM SIN-1 for 24 hours at 37° C. For MMP2/9-mediated cleavage, human recombinant MMP2 (R&D systems, carrier-free) was used, activated with freshly prepared 1 mMp-aminophenylmercuric acetate (APMA, Sigma-Aldrich) for one hour at 37° C. The APMA disrupts the cysteine-zinc bond in MMP2 responsible for enzyme latency by liberation of the sulfhydryl group. 10% MMP-Ac2-26 PA co-assemblies were prepared at 0.5 mM in a cleavage buffer containing 50 mM tricine, 50 mM NaCl, 50 μM ZnCl2, and 10 mM CaCl2) at pH 7.4, and treated with 40 nM human recombinant MMP2 for 24 hours at 37° C. At the end of each time point, the samples were stored at −20° C., effectively stopping the cleavage reactions. Samples were analyzed at room temperature, 0.04-0.3 mg/mL with 0.1% NH4OH using a ThermoFisher Q Exactive HIF-X (ThermoFisher, Bremen, Germany) mass spectrometer coupled with a Waters Acquity H-class liquid chromatograph system. […] All measurements were recorded at a resolution setting of 120,000. […] Injection volume for all samples was […]. Data was analyzed on Xcalibur (ThermoFisher, Breman, Germany).
compound,measurement,setting,value
CC[C@H](C)[C@H](NC(=O)[C@H](Cc1ccccc1)NC(=O)[C@H](Cc1c[nH]c2ccccc12)NC(=O)[C@H](C)NC(=O)[C@H](CCC(N)=O)NC(=O)[C@H](CCCCN)NC(=O)[C@H](CC(C)C)NC(=O)[C@H](Cc1ccccc1)NC(=O)[C@H](CCC(=O)O)NC(=O)[C@H](CO)NC(=O)[C@@H](NC(=O)[C@H](CCSC)NC(=O)[C@H](C)NC(C)=O)C(C)C)C(=O)N[C@@H](CCC(=O)O)C(=O)N[C@@H](CC(N)=O)C(=O)N[C@@H](CCC(=O)O)C(=O)N[C@@H](CCC(=O)O)C(=O)N[C@@H](CCC(N)=O)C(=O)N[C@@H](CCC(=O)O)C(=O)N[C@@H](Cc1ccc(O)cc1)C(=O)N[C@H](C(=O)N[C@@H](CCC(N)=O)C(=O)N[C@H](C(=O)N[C@H](C(=O)N[C@@H](CCCCN)C(=O)O)C(C)C)[C@@H](C)O)C(C)C [Ac2-26] (Ac-AMVSEFLKQAWFIENEEQEYVQTVK-OH; N-terminus and C-terminus assumed),cellular metabolism (MTT) in comparison to the stimulated control,[1],did not significantly affect cellular metabolism
"Cl.O=C(O)Cc1cccc(OCCCN(Cc2cccc(C(F)(F)F)c2Cl)CC(c2ccccc2)c2ccccc2)c1 [LXR, GW3965]",LXR effects upon macrophage efflux,J774.2 mouse macrophages,no significant increases
same,solubility,[2],insoluble
same,reversal of atherosclerosis from baseline levels,LDLR KO mice,approximately 5%
same,atherosclerosis progression in comparison to the PBS control,"LDLR KO mice; twice per week over eight weeks, percent of atherosclerosis in the aortic root",significantly decreased
same,release across the dialysis membrane,[3],up to 85%
same,Alanine Aminotransferase (ALT),[4]; All mice,40 U/L
same,Alkaline phosphatase,[4]; All mice,65.5 U/L
same,Aspartate Aminotransferase (AST),[4]; All mice,135 U/L
same,Bicarbonate and CO2,[4]; All mice,12 mmol/L
same,Bilirubin - Conjugated,[4]; All mice,0.05 mg/dL
same,Bilirubin - Unconjugated,[4]; All mice,0.3 mg/dL
same,Blood Urea Nitrogen,[4]; All mice,23 mg/dL
same,Cholesterol,[4]; All mice,2000.5 mg/dL
same,Creatine,[4]; All mice,0 U/L
same,Creatine Kinase,[4]; All mice,137.5 U/L
same,Globulin,[4]; All mice,2.7 g/dL
same,Glucose,[4]; All mice,237 mg/dL
same,Potassium,[4]; All mice,5.2 mmol/L
same,Sodium,[4]; All mice,139.5 mmol/L
same,Total Bilirubin,[4]; All mice,0.4 mg/dL
same,Total Protein,[4]; All mice,5.45 g/dL
same,Alanine Aminotransferase (ALT),[4]; Females,33 U/L
same,Alkaline phosphatase,[4]; Females,73 U/L
same,Aspartate Aminotransferase (AST),[4]; Females,142 U/L
same,Bicarbonate and CO2,[4]; Females,10 mmol/L
same,Bilirubin - Conjugated,[4]; Females,0 mg/dL
same,Bilirubin - Unconjugated,[4]; Females,0.5 mg/dL
same,Blood Urea Nitrogen,[4]; Females,21.5 mg/dL
same,Cholesterol,[4]; Females,2029 mg/dL
same,Creatine,[4]; Females,0 U/L
same,Creatine Kinase,[4]; Females,136 U/L
same,Globulin,[4]; Females,2.3 g/dL
same,Glucose,[4]; Females,203 mg/dL
same,Potassium,[4]; Females,4.6 mmol/L
same,Sodium,[4]; Females,140 mmol/L
same,Total Bilirubin,[4]; Females,0.6 mg/dL
same,Total Protein,[4]; Females,5.4 g/dL
same,Alanine Aminotransferase (ALT),[4]; Males,47 U/L
same,Alkaline phosphatase,[4]; Males,41 U/L
same,Aspartate Aminotransferase (AST),[4]; Males,102 U/L
same,Bicarbonate and CO2,[4]; Males,14 mmol/L
same,Bilirubin - Conjugated,[4]; Males,0.1 mg/dL
same,Bilirubin - Unconjugated,[4]; Males,0.2 mg/dL
same,Blood Urea Nitrogen,[4]; Males,24 mg/dL
same,Cholesterol,[4]; Males,1972 mg/dL
same,Creatine,[4]; Males,0 U/L
same,Creatine Kinase,[4]; Males,138 U/L
same,Globulin,[4]; Males,2.8 g/dL
same,Glucose,[4]; Males,259 mg/dL
same,Potassium,[4]; Males,5.2 mmol/L
same,Sodium,[4]; Males,139 mmol/L
same,Total Bilirubin,[4]; Males,0.3 mg/dL
same,Total Protein,[4]; Males,5.5 g/dL
same,AST levels in comparison to the PBS control,[4]; female mice,no significant differences
same,aspartate aminotransferase (AST) in the blood in comparison to PBS,[4]; male mice,significantly elevated levels of aspartate aminotransferase (AST)
C16-V2A2 (SEQ ID NO: 8)-E2-GGGPQGIWGQGK (SEQ ID NO: 1)-AMVSEFLKQAWFIENEEQEYVQTVK (SEQ ID NO: 7)-NH2 (C16-VVAAEEGGGPQGIWGQGKAMVSEFLKQAWFIENEEQEYVQTVK-NH2) [MMP-Ac2-26 PA],Ac2-26 release from PA nanofibers,human recombinant MMP2,released Ac2-26
